Legend:
[1] = Cytotoxic activity (MTT) against normal gingival fibroblast HGF; type: cell-based; conditions: human, HGF normal gingival fibroblasts, HGF normal oral cells, 48 h incubation
Description: (§1) Human normal oral mesenchymal cells, gingival fibroblast (HGF), and periodontal ligament fibroblast (HPLF) established from the first premolar tooth extracted from the lower jaw of a child[47] and human OSCC cell line HSC-2 (derived from tongue), purchased from Riken Cell Bank (Tsukuba, Japan), were cultured at 37 °C in DMEM supplemented with 10% heat-inactivated FBS, 100 units/ml penicillin G, and 100 µg/ml streptomycin sulphate under a humidified 5% CO2 atmosphere. HGF and HPLF cells at 10–18 population doubling levels were used in this study.
(§2) Cells were inoculated at 2.5 × 10^3 cells/0.1 ml in a 96-microwell plate (Becton Dickinson Labware, Franklin Lakes, NJ). After 48 h, the medium was replaced with 0.1 ml of fresh medium containing different concentrations of single test compounds. Cells were incubated further for 48 h and the relative viable cell number was then determined by the MTT method[22]^,[48–54]. All benzoxazolone derivatives were dissolved with DMSO at the concentration of 40 mM and stored until use. Control cells were treated with the same amounts of DMSO ([…], 0.03125, 0.0625, 0.125, 0.25, 0.5, and 1.0%) and the cell damage induced by DMSO was subtracted from that induced by test agents. In brief, cells were stained with MTT reagent, dissolved with DMSO, and the absorbance of the MTT-stained cell lysate was measured at 560 nm, using a microplate reader (Infinite F 50R, TECAN, Kawasaki, Japan). […]

hCA I = hCA I (Homo sapiens, UniProt P00915); test: Carbonic anhydrase inhibition, hCA I; type: biochemical; conditions: for Ki: Lineweaver–Burk, three concentrations
Sequence of hCA I (P00915 whole entry): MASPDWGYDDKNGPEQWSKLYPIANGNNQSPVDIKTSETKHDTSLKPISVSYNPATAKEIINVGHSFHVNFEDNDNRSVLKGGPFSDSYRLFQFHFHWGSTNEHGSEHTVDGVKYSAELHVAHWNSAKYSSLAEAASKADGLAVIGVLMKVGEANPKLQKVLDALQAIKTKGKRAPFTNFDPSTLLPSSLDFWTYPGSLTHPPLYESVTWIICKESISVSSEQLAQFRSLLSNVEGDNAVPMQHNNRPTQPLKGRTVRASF
Description: (§3) The purification of cytosolic CA isoenzymes (CA I and CA II) was previously described with a simple one-step method by a Sepharose-4B-L tyrosine-sulphanilamide affinity chromatography[42]^,[53]^,[55–58]. The protein quantity in the column effluents was determined spectrophotometrically at 280 nm. Sodium dodecyl sulphate-polyacrylamide gel electrophoresis (SDS-PAGE) was applied with a Bio-Rad Mini Gel system Mini-PROTEIN system (Bio-Rad Laboratories, Inc., Shanghai, China) after purification of both CA isoenzymes. Briefly, it was performed in acrylamide for the running (10%) and the stacking gel (3%) contained SDS (0.1%), respectively. […] Bovine serum albumin was used as a standard protein. The IC50 values were obtained from activity (%) versus compounds plots. For the calculation of Ki values, three different concentrations were used. The Lineweaver–Burk curves were drawn and calculations were realised as before.

HSC-2 = test: Cytotoxic activity (MTT) against OSCC cell line HSC-2; type: cell-based, human; conditions: for CC50: Homo sapiens, HSC-2, 48 h incubation, MTT, triplicate; for PSE (B/A2)×100: potency-selectivity expression = mean CC50 normal cells / (CC50 HSC-2)^2 × 100; for TS (B/A): tumour specificity = mean CC50 normal cells (HGF, HPLF) / CC50 HSC-2; for increase in cytotoxicity compared to non-substituted compound 1: HSC-2 CC50 ratio versus compound 1; for increase in TS (selectivity) compared to compound 1: TS ratio versus compound 1
Description: as §1, §2
(§4) Tumour specificity (TS) was calculated using the following equation: TS = Mean CC50 against three normal oral cell types (HGF, HPLF)/Mean CC50 against four OSCC cell lines (HSC-2). Since HGF cells were derived from gingival tissue, the relative sensitivity of these cells was also compared (as mean CC50 against HGF/mean CC50 against HSC-2).

[2] = Cytotoxic activity (MTT), mean over human normal oral cells; type: cell-based; conditions: HGF and HPLF normal oral fibroblasts (mean of both), read-out: CC50 Human normal oral cells Mean (B)
Description: as §1, §2, §4

hCA II = hCA II (Homo sapiens, UniProt P00918); test: Carbonic anhydrase inhibition, hCA II; type: biochemical; conditions: for Ki: Lineweaver–Burk, three concentrations
Description: as §3

[3] = Cytotoxic activity (MTT) against normal periodontal ligament fibroblast HPLF; type: cell-based; conditions: human, HPLF normal periodontal ligament fibroblasts, HPLF normal oral cells, 48 h incubation
Description: as §1, §2

IC50 (hCA I) [µM] | Ki (hCA I) [µM] | melting point [°C] | IC50 (hCA II) [µM] | Ki (hCA II) [µM] | SMILES | CC50 at 48 h [1] [µM] | cytotoxicity reduced compared to compound 1 (HSC-2; HSC-2 CC50 ratio versus compound 1, decrease) [times] | CC50 (HSC-2) [µM] | PSE (B/A2)×100 (HSC-2) | TS (B/A) (HSC-2) | CC50 at 48 h [2] [µM] | CC50 at 48 h [3] [µM] | increase in cytotoxicity compared to non-substituted compound 1 (HSC-2) [times] | increase in TS (selectivity) compared to compound 1 (HSC-2) [times] | times more cytotoxic than 5-FU (HSC-2; HSC-2 CC50 ratio versus 5-FU) [times] | times low cytotoxic than DXR (HSC-2; HSC-2 CC50 ratio versus DXR) [times] | PSE value higher than 5-FU (HSC-2; PSE ratio versus 5-FU) | PSE value compared to compound 1 (HSC-2; PSE ratio versus compound 1) [times]
40.3 | 52.3 ± 9.97 | 248 to 250 | 29.7 | 10.8 ± 2.14 | CN(C)c1ccc(C=CC(=O)c2ccc3[nH]c(=O)oc3c2)cc1 [Compound 7, 6-[3-(4-Dimethylaminophenyl)-2-propenoyl]-3H-benzoxazol-2-one] | 76.3 | 1.4 | 30.2 | 8 | 2.4 | 73.2 | 70 | – | – | – | – | – | –
69.6 | 63 ± 15.4 | 277 to 279 | 48.5 | 35.2 ± 8.36 | O=C(C=Cc1cccc(O)c1)c1ccc2[nH]c(=O)oc2c1 [Compound 5, 6-[3-(3-Hydroxyphenyl)-2-propenoyl]-3H-benzoxazol-2-one] | 55.4 | – | 6.9 | 111 | 7.7 | 52.9 | 50.3 | – | – | – | – | – | –
47.5 | 30.5 ± 11.3 | 210 to 213 | 48.1 | 36.2 ± 10.3 | COc1ccc(C=CC(=O)c2ccc3[nH]c(=O)oc3c2)cc1 [Compound 3, 6-[3-(4-Methoxyphenyl)-2-propenoyl]-3H-benzoxazol-2-one] | 88.3 | – | 14.5 | 41 | 5.9 | 86.2 | 84 | 1.5 | – | – | – | – | –
33 | 38.8 ± 1.93 | 258 to 260 | 45.6 | 32.1 ± 6.6 | Cc1ccc(C=CC(=O)c2ccc3[nH]c(=O)oc3c2)cc1 [Compound 2, 6-[3-(4-Metyhlphenyl)-2-propenoyl]-3H-benzoxazol-2-one] | 87.7 | – | 10.1 | 94 | 9.5 | 96.5 | 105 | 2.2 | 2.7 | – | – | – | –
58.7 | 70.6 ± 6.67 | 230 to 232 | 40.5 | 36.2 ± 13.3 | O=C(C=Cc1ccccc1)c1ccc2[nH]c(=O)oc2c1 [Compound 1, 6-(3-Phenyl-2-propenoyl)-3H-benzoxazol-2-one] | 71 | – | 22.1 | 16 | 3.5 | 77.2 | 83.3 | – | – | – | – | – | –
57.7 | 28.4 ± 6.63 | 243 to 245 | 18.1 | 38 ± 2.36 | O=C(C=Cc1ccc(OCc2ccccc2)cc1)c1ccc2[nH]c(=O)oc2c1 [Compound 8, 6-[3-(4-Benzyloxyphenyl)-2-propenoyl]-3H-benzoxazol-2-one] | 98 | – | 11.9 | 46 | 5.5 | 65.3 | 32.7 | 1.9 | – | – | – | – | –
– | – | – | – | – | O=c1[nH]cc(F)c(=O)[nH]1 [Compound 5-FU, 5-Fluorouracil, reference compound] | > 1000 | – | 37.7 | 80.7 | – | > 1000 | > 1000 | – | – | – | – | – | –
52.1 | 37.1 ± 7.77 | 220 to 222 | 30.1 | 33.3 ± 6.15 | CC(C)c1ccc(C=CC(=O)c2ccc3[nH]c(=O)oc3c2)cc1 [Compound 6, 6-[3-(4-Isopropylphenyl)-2-propenoyl]-3H-benzoxazol-2-one] | 53 | – | 10.1 | 64 | 6.4 | 64.5 | 76 | 2.2 | 1.8 | – | – | – | –
– | – | – | – | – | COc1cccc2c1C(=O)c1c(O)c3c(c(O)c1C2=O)C[C@@](O)(C(=O)CO)C[C@@H]3O[C@H]1C[C@H](N)[C@H](O)[C@H](C)O1 [DXR, Doxorubicin, reference compound] | 0.7 | – | 0.5 | >2030 | – | > 5.3 | > 10 | – | – | – | – | – | –

SMILES | IC50 (hCA I) [µM] | Ki (hCA I) [µM] | melting point [°C] | IC50 (hCA II) [µM] | Ki (hCA II) [µM] | CC50 at 48 h [1] [µM] | cytotoxicity reduced compared to compound 1 (HSC-2; HSC-2 CC50 ratio versus compound 1, decrease) [times] | CC50 (HSC-2) [µM] | PSE (B/A2)×100 (HSC-2) | TS (B/A) (HSC-2) | CC50 at 48 h [2] [µM] | CC50 at 48 h [3] [µM] | increase in cytotoxicity compared to non-substituted compound 1 (HSC-2) [times] | increase in TS (selectivity) compared to compound 1 (HSC-2) [times] | times more cytotoxic than 5-FU (HSC-2; HSC-2 CC50 ratio versus 5-FU) [times] | times low cytotoxic than DXR (HSC-2; HSC-2 CC50 ratio versus DXR) [times] | PSE value higher than 5-FU (HSC-2; PSE ratio versus 5-FU) | PSE value compared to compound 1 (HSC-2; PSE ratio versus compound 1) [times]
O=C(C=Cc1ccc(C(F)(F)F)cc1)c1ccc2[nH]c(=O)oc2c1 [Compound 4, 6-[3-(4-Trifluoromethylphenyl)-2-propenoyl]-3H-benzoxazol-2-one] | 29.7 | 30.8 ± 3.49 | – | 45 | 19.2 ± 2.19 | 24.7 | – | 4 | 159 | 6.4 | 25.5 | 26.3 | 5.5 | 1.8 | 9.4 | 8 | about 2 times | 9.9

Reference: PMC6781194, “Synthesis, cytotoxicities, and carbonic anhydrase inhibition potential of 6-(3-aryl-2-propenoyl)-2(3H)-benzoxazolones” (Journal of Enzyme Inhibition and Medicinal Chemistry, 2019)
